{
  "source": "BindingDB's records for doi:10.1016/j.bmcl.2011.10.052",
  "about": "(Rhône-Poulenc Rorer, 2011)",
  "data": [
    {"biological_target": "Dihydroorotate dehydrogenase (quinone), mitochondrial (Homo sapiens, UniProt Q02127)", "sequence (Q02127 whole entry)": "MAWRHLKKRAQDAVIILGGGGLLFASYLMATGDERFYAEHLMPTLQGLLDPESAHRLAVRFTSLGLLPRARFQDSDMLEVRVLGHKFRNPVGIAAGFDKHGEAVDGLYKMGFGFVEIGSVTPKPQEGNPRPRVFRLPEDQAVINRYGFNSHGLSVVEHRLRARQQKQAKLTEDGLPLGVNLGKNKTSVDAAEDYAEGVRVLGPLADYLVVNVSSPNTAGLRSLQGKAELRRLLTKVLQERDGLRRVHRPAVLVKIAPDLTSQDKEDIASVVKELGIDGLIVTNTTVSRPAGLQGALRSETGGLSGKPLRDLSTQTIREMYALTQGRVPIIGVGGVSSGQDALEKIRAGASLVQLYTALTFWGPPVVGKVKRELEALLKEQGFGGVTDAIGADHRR", "assay": "Inhibition of human dihydroorotate dehydrogenase", "units": {"IC50": "nM"}, "values": [
      {"smiles": "CCC(=O)C(C#N)C(=O)Nc1ccc(OS(=O)(=O)C(F)(F)F)cc1", "note": "(configuration not stated)", "IC50": 150},
      {"smiles": "CCC(=O)C(C#N)C(=O)Nc1ccc(-c2cccc(Cl)c2)c(C(=O)OC)c1", "note": "(configuration not stated)", "IC50": 31},
      {"smiles": "CCC(=O)C(C#N)C(=O)Nc1ccc(-c2ccc(F)cc2F)c(C(=O)OC)c1", "note": "(configuration not stated)", "IC50": 31},
      {"smiles": "CCC(=O)C(C#N)C(=O)Nc1ccc(-c2ccc(F)nc2)c(C(=O)OC)c1", "note": "(configuration not stated)", "IC50": 150},
      {"smiles": "CCC(=O)C(C#N)C(=O)Nc1ccc(-c2ccc(F)cc2OC)c(C(=O)OC)c1", "note": "(configuration not stated)", "IC50": 66},
      {"smiles": "CCC(=O)C(C#N)C(=O)Nc1ccc(-c2ccc3c(c2)OCCO3)c(C(=O)OC)c1", "note": "(configuration not stated)", "IC50": 66},
      {"smiles": "CCC(=O)C(C#N)C(=O)Nc1ccc(-c2cccc(OC3CCC3)c2)c(C(=O)OC)c1", "note": "(configuration not stated)", "IC50": 31}
    ]}
  ]
}
